Values quoted from earlier work, collected in paper PMC12751000, “Dual Agonist/Antagonist Modulation of α9-Containing Nicotinic Acetylcholine Receptors by 2‑Ammoniumethyl Ethers of Stilbenol and Stilbenol Analogues” (Journal of Medicinal Chemistry, 2025).

Target: α7[L247T] mutant receptor
Set-up: method as in previous findings, citation number not given
Conditions: chick α7[L247T] mutant; ref: previous findings, citation number not given; cited from earlier work

CC[N+](CC)(CC)CCOc1ccc(/C=C/c2ccccc2)cc1 [Compound 1, 2-triethylammonium ethyl ether of 4-stilbenol]
EC50: 0.2 nM
